Data: patent US20240197869A1, “HYPERACTIVATORS OF MAMMALIAN DENDRITIC CELLS” (Corner Therapeutics, Inc., priority 2021, published 2024)
Entries after “also recorded” stand apart in the source; their conditions may differ. Residues, ends and D or L forms follow the SMILES beside them. *: point of attachment. X1 = CCCCCCCCCCCCCCCC(=O)OCC(C*)OC(=O)CCCCCCCCCCCCCCC

What was measured:
[1] = system: canine peripheral blood mononuclear cells (PBMCs); assay: IL-1β secretion by canine PBMCs (ELISA); format: cell-based; settings: stimulus as labelled, no hyperactivating lipid, 2 days
Description: (§1) Isolation of PBMCs from Whole Blood. PBMCs were isolated from whole blood using density gradient centrifugation with Ficoll-Paque PLUS (Cytivia). Whole blood was diluted 1:1 with PBS, layered on top of Ficoll-Paque PLUS and centrifuged at 1000×g for 30 minutes at room temperature. PBMCs were collected, washed twice in PBS, and incubated with Ack lysis buffer (Lonza) to remove any remaining red blood cells.
(§2) Cell Culture and Stimulation. […] Cells were plated at 1×10^5 (canine cells) or 1×10^6 (human cells) per well in 96-well flat bottom tissue culture plates. Lyophilized Vaccigrade R848 (Invivogen) was reconstituted and diluted according to manufacturer's recommendations and added to cells at a final concentration of 1 μg/mL.
Quantification of Cytokine Secretion. IL-1β secretion from human PBMCs was assessed using one of the following kits: ELISA MAX Deluxe Set Human IL-1β kit (Biolegend), Invitrogen Human IL-1β kit, or the Lumit™ Human IL-1β Immunoassay (Promega). IFNγ secretion from human PBMCs was assessed using the ELISA MAX Deluxe Set Human IFNγ (Biolegend) and TNFα secretion from human PBMCs was assessed using the Human TNFα Uncoated ELISA kit (Invitrogen). […] IL-1β secretion from canine PBMCs was assessed using the Canine IL-1β/IL-1F2 DuoSet ELISA (R&D) according to manufacturer's instructions with the following modifications: i) total sample+buffer volume for incubation was reduced from 100 μL to 50 μL; ii) sample incubation was completed overnight at 4° C. on an orbital shaker. For all ELISAs, absorbance was measured at 450 nm, with a 570 nm correction, using a Spectramax M5e plate reader (Molecular Devices). For Lumit™ assays, luminescence was measured on all wavelengths using a Spectramax M5e plate reader (Molecular Devices) with an integration time of 500 ms. […]

human PBMCs = assay: Cytokine secretion (IL-1β, IFNγ, TNFα) by human PBMCs; format: cell-based; settings: stimulus as labelled, no hyperactivating lipid, 2 days
Description: as §1, §2
Quantification of Cytokine Secretion. IL-1β secretion from human PBMCs was assessed using one of the following kits: ELISA MAX Deluxe Set Human IL-1β kit (Biolegend), Invitrogen Human IL-1β kit, or the Lumit™ Human IL-1β Immunoassay (Promega). IFNγ secretion from human PBMCs was assessed using the ELISA MAX Deluxe Set Human IFNγ (Biolegend) and TNFα secretion from human PBMCs was assessed using the Human TNFα Uncoated ELISA kit (Invitrogen). ELISAs were performed according to manufacturer's instructions with the following modifications: i) total sample+buffer volume for incubation was reduced from 100 μL to 50 μL; ii) the top standard was prepared at […], with two-fold dilutions to […]; and iii) sample incubation was completed overnight at 4 C on an orbital shaker. Lumit™ assays were performed according to manufacturer's instructions. IL-1β secretion from canine PBMCs was assessed using the Canine IL-1β/IL-1F2 DuoSet ELISA (R&D) according to manufacturer's instructions with the following modifications: i) total sample+buffer volume for incubation was reduced from 100 μL to 50 μL; ii) sample incubation was completed overnight at 4° C. on an orbital shaker. For all ELISAs, absorbance was measured at 450 nm, with a 570 nm correction, using a Spectramax M5e plate reader (Molecular Devices). For Lumit™ assays, luminescence was measured on all wavelengths using a Spectramax M5e plate reader (Molecular Devices) with an integration time of 500 ms. To determine cytokine concentrations in supernatants, sample concentrations were interpolated using a standard curve via 4PL analysis on GraphPad Prism 9 (GraphPad Software). The interpolated results of samples were then adjusted for any dilutions made to the supernatant.

[2] = system: human monocyte-derived dendritic cells (moDCs); assay: DAMP screen: IL-1β secretion by LPS-activated human moDCs (ELISA); format: cell-based
Description: Danger-Associated Molecular Pattern (DAMP) Screen.
(§3) Quantification of IL-1beta Secretion. IL-1beta secretion was assessed using the ELISA MAX Deluxe Set Human IL-1beta kit (Biolegend). ELISAs were performed according to manufacturer's instructions with the following modifications: i) total sample volume for incubation was reduced from […] the top standard was prepared at […], with two-fold dilutions to […]; and iii) sample incubation was completed overnight at 4 C on an orbital shaker. […] To determine IL-1beta concentration in supernatants, sample IL-1beta concentrations were interpolated using a standard curve via 4PL analysis on GraphPad Prism 9 (GraphPad Software). The interpolated results of samples were then adjusted for any dilutions made to the supernatant.

[3] = system: human monocyte-derived dendritic cells (moDCs); assay: Lipid titration: IL-1β secretion by LPS-activated human moDCs; format: cell-based; settings: for Activity Units (AU) ± SD (lipid activity index): reciprocal of lowest concentration giving IL-1β two-fold over LPS x highest IL-1β signal, lipid 1.3-82.5 μM + LPS
Description: as §3

[4] = system: human monocyte-derived dendritic cells (moDCs); assay: DAMP screen: viability of human moDCs (CellTiter-Glo)
[5] = system: human monocyte-derived dendritic cells (moDCs); assay: Lipid titration: viability of human moDCs (CellTiter-Glo); settings: 10.3 μM lipid + LPS 1 μg/mL, 2 days; relative to LPS-treated moDCs; Table 1-5
Description: Lipid Titration. After 6 days of differentiation into moDC, cells were collected and counted. Cells were replated at 100,000 cells/well in R10 media in 96-well flat bottom tissue culture-treated plates. LPS, serotype 055:B5 (Enzo Life Sciences) was added to a final concentration of 1 μg/mL in each well. After the addition of LPS, lipids were prepared. […] After two days of culture, cell cultures were used for endpoint analyses.
Endpoint Analyses. After culturing moDCs with PAMPs and DAMPs for two days, supernatant and cell samples were collected for analysis. Cells in culture were pelleted by centrifugation at 400×g for 5 min.
Quantification of Cell Viability. Cell viability was assessed by quantifying the presence of ATP as an indicator of metabolically active cells using the CellTiter-Glo Luminescent Cell Viability Assay (Promega). Metabolic activity was assessed following manufacturer's instructions. The CellTiter-Glo reagent was mixed with the cell pellets and remaining supernatant, and transferred to a white, opaque 96-well plate. Luminescence was measured on all wavelengths on a Spectramax iD3 plate reader (Molecular Devices) using an integration time of 500 ms. Percent viability was calculated relative to the control condition of moDCs treated with LPS.
Statistical Analyses. […] For each tested condition, cells from each donor were plated to be tested in triplicate.

[6] = system: human monocyte-derived dendritic cells (moDCs); assay: PAMP screen: IL-1β secretion by human moDCs with PRR agonist and 22:0 Lyso PC; format: cell-based; settings: 2 days
Description: (§4) Pathogen-Associated Molecular Pattern (PAMP) Screen. Innate immune signaling pathway agonists were purchased from Invivogen. Lyophilized stocks were reconstituted and stored according to manufacturer's instructions and at recommended concentrations. […] Innate immune signaling agonists were diluted in R10 media to the manufacturer's recommended working concentration and then added onto cells. 22:0 Lyso PC was then reconstituted from a lyophilized stock in R10 and then further diluted. The lipid was added onto cells at a final concentration of 20 μM. Cells were incubated for 2 days, then cultures were collected for endpoint analyses.
as §3

[7] = system: human monocyte-derived dendritic cells (moDCs); assay: PAMP screen: viability of human moDCs with PRR agonist and 22:0 Lyso PC; format: cell-based; settings: 2 days
Description: as §4
Quantification of Cell Viability.

[8] = 41.3 μM lipid + LPS 1 μg/mL, 2 days, Table 1-2
[9] = 82.5 μM lipid + LPS, selected lipids, Table 1-3 (repeats Table 1-1)
[10] = 10.3 μM lipid + LPS 1 μg/mL, 2 days, Table 1-5
[11] = 20.6 μM lipid + LPS, human moDCs, 4 donors, mean (SD in wrapped line below)
[12] = 41.3 μM lipid + LPS 1 μg/mL, 2 days, relative to LPS-treated moDCs, Table 1-2
[13] = 82.5 μM lipid + LPS 1 μg/mL, 2 days, relative to LPS-treated moDCs, Table 1-1
[14] = high dose PAMP + 22:0 Lyso PC 20 μM

Row | Compound | IL-1β secretion [2, 8] | IL-1β secretion [2, 9] | IL-1β secretion [3, 10] | IL-1β secretion [3, 11] | Relative Viability (%) ± SD [4, 12] | Relative Viability (%) ± SD [4, 13] | Relative Viability (%) ± SD [4, 9] | Relative Viability (%) ± SD [5] | other results
1 | Nc1nc2c(ncn2[C@@H]2O[C@@H]3COP(=O)(O)O[C@H]4[C@@H](O)[C@H](n5cnc6c(N)ncnc65)O[C@@H]4COP(=O)(O)O[C@@H]2[C@@H]3O)c(=O)[nH]1 [2′3′cGAMP, reference compound] |  |  |  |  |  |  |  |  | IL-1β secretion (in words) [1]: neither GM-CSF nor 2′3′cGAMP induced significant IL-1β secretion; IFNγ secretion, fold change relative to R848 alone (in words) (human PBMCs): neither GM-CSF nor 2′3′cGAMP elicited a substantial fold change in IFNγ secretion over R848 alone
2 | CCCCCCCCCCCCCCCCCCCCCCCC(=O)OC[C@@H](O)COP(=O)([O-])OCC[N+](C)(C)C [24:0 LYSO PC, 1-lignoceroyl-2-hydroxy-sn-glycero-3-phosphocholine] | 38.8 pg/mL | 39.7 pg/mL | 36.5 pg/mL | 36.6 pg/mL | 94.6% | 96.0% | 96.0% | 96.8% | 
3 | CCCCCCCCCCCCCCCC(=O)OC[C@H](COP(=O)([O-])OCC[N+](C)(C)C)OC(=O)CCCCCCCC(=O)O [PAzePC, 1-palmitoyl-2-azelaoyl-sn-glycero-3-phosphocholine, reference compound] | 191.7 pg/mL | 153.4 pg/mL | 47.9 pg/mL | 59.0 pg/mL | 95.6% | 78.8% | 78.8% | 98.0% | Activity Units (AU) ± SD (lipid activity index) [3]: 1.81 ± 1.95 AU
4 | CCCCCCCCCCCCCCCC(=O)OC[C@H](COP(=O)([O-])OCC[N+](C)(C)C)OC(=O)CCCC=O [POVPC, 1-palmitoyl-2-(5′-oxo-valeroyl)-sn-glycero-3-phosphocholine, reference compound] | 121.5 pg/mL | 168.5 pg/mL | 49.1 pg/mL | 60.6 pg/mL | 92.1% | 79.5% | 79.5% | 97.3% | Activity Units (AU) ± SD (lipid activity index) [3]: 0.00 ± 0.00 AU
5 | CCCCCCCCCCCCCCCC(=O)OCC(CSC[C@H](N)C(=O)N[C@@H](CO)C(=O)N[C@@H](CCCCN)C(=O)N[C@@H](CCCCN)C(=O)N[C@@H](CCCCN)C(=O)N[C@@H](CCCCN)C(=O)O)OC(=O)CCCCCCCCCCCCCCC (stereo partly drawn) [Pam2CSK4] (H-C(X1)SKKKK-OH; N-terminus and C-terminus assumed) |  |  |  |  |  |  |  |  | IL-1β secretion (in words) [6, 14]: enabled IL-1β secretion; also recorded: induced IL-1β secretion; IL-1β secretion (in words) ([6]; low dose PAMP + 22:0 Lyso PC): IL-1β secretion was only observed; cell viability (in words) [7, 14]: little to no effect on cell viability; cell viability (in words) ([7]; low dose PAMP + 22:0 Lyso PC): Neither R848 nor Pam2CSK4 at the lower concentrations tested affected cell viability
6 | CCOC(=O)C1=Cc2ccc(-c3cccc(C#N)c3)cc2N=C(N)C1 [TL8-506] |  |  |  |  |  |  |  |  | IL-1β secretion (in words) [6, 14]: enabled IL-1β secretion; also recorded: induced IL-1β secretion
7 | GM-CSF: human GM-CSF (Peprotech), added at 10 ng/mL |  |  |  |  |  |  |  |  | IL-1β secretion (in words) [1]: neither GM-CSF nor 2′3′cGAMP induced significant IL-1β secretion; IFNγ secretion, fold change relative to R848 alone (in words) (human PBMCs): neither GM-CSF nor 2′3′cGAMP elicited a substantial fold change in IFNγ secretion over R848 alone; IL-1β secretion (in words) (human PBMCs): did not induce levels of IL-1β secretion from human PBMCs significantly above background levels
